{"source": "patent EP0726072A2", "about": "“Composition for the treatment of hypertension and congestive heart failure, containing an angiotensin II antagonist and an endopeptidase inhibitor” (BRISTOL-MYERS SQUIBB COMPANY, priority 1995, dated 1996)", "tested_on": "1K1C hypertensive dogs", "test": "Haemodynamic, renal and hormonal effects in conscious 1-kidney-1-clip hypertensive dogs", "assay_type": "in vivo", "experimental": "The studies described in this experiment were conducted in dogs that had been rendered hypertensive by prior unilateral nephrectomy and constriction of the remaining renal artery. This model is characterized by normal basal levels of plasma renin activity and is relatively resistant to the anti-hypertensive activity of angiotensin converting enzyme inhibitors and AT1 receptor antagonists.\nThe following experiments were conducted in fasted 1K1C hypertensive dogs lightly restrained in standard canine slings. An indwelling arterial catheter was accessed via a subcutaneous port for measurement of blood pressure via a Gould-Statham pressure transducer. Mean arterial pressure (MAP) was continuously recorded on a Gould chart writer and stored electronically using a Po-Ne-Mah data acquisition system. During each study, urine was collected at 20 minute intervals via a Foley bladder catheter for determination of urine volume. The concentrations of urinary sodium and potassium were measured using ion-selective electrodes and their rates of urinary excretion (µEq/min) were calculated. Glomerular filtration rate (GFR) and effective renal plasma flow (ERPF) were determined by the renal clearances of exogenous creatinine and para-aminohippuric acid (PAH), respectively. The concentrations of creatinine and PAH in sequential samples of urine and plasma were determined by spectrophotometric assays and the clearances were calculated by the standard formula.\nArterial blood samples were drawn at the end of the control period and at 60 minute intervals thereafter for determination of the plasma concentrations of atrial natriuretic peptide (ANP), cyclic GMP and plasma renin activity (PRA) by separate radioimmunoassays. The plasma and urine samples were preserved and the assays were conducted according to standard radioimmunoassay procedures. Urinary excretion rates of cyclic GMP and ANP were calculated and expressed as pmol/min and fmol/min, respectively.\nIn each study, baseline measurements were obtained during two 20 minute control periods. One of the treatments was then administered and sampling continued at 20 minute intervals for three hours.\nTo minimize inter-animal variability, each data point was expressed as the change from the average control value for that parameter. Significant differences among treatments were identified by analysis of variance for repeated measures. […] Results are given as mean ± SEM.", "key": {"[1]": {"settings": "20 min after treatment, 30 µmol/kg iv of each agent"}, "[2]": {"settings": "40 min after treatment, 30 µmol/kg iv of each agent"}, "[3]": {"settings": "60 min after treatment, 30 µmol/kg iv of each agent"}, "[4]": {"settings": "80 min after treatment, 30 µmol/kg iv of each agent"}, "[5]": {"settings": "100 min after treatment, 30 µmol/kg iv of each agent"}, "[6]": {"settings": "120 min after treatment, 30 µmol/kg iv of each agent"}, "[7]": {"settings": "140 min after treatment, 30 µmol/kg iv of each agent"}, "[8]": {"settings": "160 min after treatment, 30 µmol/kg iv of each agent"}, "[9]": {"settings": "180 min after treatment, 30 µmol/kg iv of each agent"}}, "data": [{"smiles": "O=C(O)CCNC(=O)C(CS)Cc1ccccc1", "note": "(racemic) [SQ 28603, (±)-N-[2-(mercaptomethyl)-1-oxo-3-phenylpropyl]-β-alanine]", "values": [{"measurement": "increase in the amount of sodium excreted during the 3 hours after injection", "setting": "30 µmol/kg iv of each agent, cumulative over 3 hours", "result": "5.2±2.3", "unit": "mEq/3 hr"}, {"measurement": "Cyclic GMP excretion, change over 3 hr", "setting": "30 µmol/kg iv of each agent, not statistically significant compared to vehicle", "result": "+32±28 nmol/3 hr"}, {"measurement": "ANP Excretion, Change from control", "setting": "[1]", "result": "20.8 ± 4.9", "unit": "fmol/min"}, {"measurement": "Cyclic GMP Excretion, Change from control", "setting": "[1]", "result": "106 ± 295", "unit": "pmol/min"}, {"measurement": "Effective Renal Plasma Flow, Change from control", "setting": "[1]", "result": "6 ± 38", "unit": "mL/min"}, {"measurement": "Glomerular Filtration Rate, Change from control", "setting": "[1]", "result": "6 ± 11", "unit": "mL/min"}, {"measurement": "Mean Arterial Pressure, Change from control", "setting": "[1]", "result": "6±1", "unit": "mm Hg"}, {"measurement": "Sodium Excretion, Change from control", "setting": "[1]", "result": "13±4", "unit": "µEq/min"}, {"measurement": "Urine Volume, Change from control", "setting": "[1]", "result": "0.29 ± 0.31", "unit": "mL/min"}, {"measurement": "ANP Excretion, Change from control", "setting": "[2]", "result": "24.0 ± 4.6", "unit": "fmol/min"}, {"measurement": "Cyclic GMP Excretion, Change from control", "setting": "[2]", "result": "101 ± 280", "unit": "pmol/min"}, {"measurement": "Effective Renal Plasma Flow, Change from control", "setting": "[2]", "result": "-5 ± 15", "unit": "mL/min"}, {"measurement": "Glomerular Filtration Rate, Change from control", "setting": "[2]", "result": "3 ± 2", "unit": "mL/min"}, {"measurement": "Mean Arterial Pressure, Change from control", "setting": "[2]", "result": "9±3", "unit": "mm Hg"}, {"measurement": "Sodium Excretion, Change from control", "setting": "[2]", "result": "21±16", "unit": "µEq/min"}, {"measurement": "Urine Volume, Change from control", "setting": "[2]", "result": "0.15 ± 0.13", "unit": "mL/min"}, {"measurement": "ANP Excretion, Change from control", "setting": "[3]", "result": "45.2 ± 24.2", "unit": "fmol/min"}, {"measurement": "Cyclic GMP Excretion, Change from control", "setting": "[3]", "result": "338 ± 206", "unit": "pmol/min"}, {"measurement": "Effective Renal Plasma Flow, Change from control", "setting": "[3]", "result": "3 ± 20", "unit": "mL/min"}, {"measurement": "Glomerular Filtration Rate, Change from control", "setting": "[3]", "result": "6 ± 5", "unit": "mL/min"}, {"measurement": "Mean Arterial Pressure, Change from control", "setting": "[3]", "result": "8±3", "unit": "mm Hg"}, {"measurement": "Plasma Renin Activity, Change from control", "setting": "[3]", "result": "-0.07±0.05", "unit": "pmol AI/ml/hr"}, {"measurement": "Sodium Excretion, Change from control", "setting": "[3]", "result": "14±9", "unit": "µEq/min"}, {"measurement": "Urine Volume, Change from control", "setting": "[3]", "result": "0.18 ± 0.14", "unit": "mL/min"}, {"measurement": "ANP Excretion, Change from control", "setting": "[4]", "result": "55.5 ± 19.7", "unit": "fmol/min"}, {"measurement": "Cyclic GMP Excretion, Change from control", "setting": "[4]", "result": "226 ± 154", "unit": "pmol/min"}, {"measurement": "Effective Renal Plasma Flow, Change from control", "setting": "[4]", "result": "-20 ± 6", "unit": "mL/min"}, {"measurement": "Glomerular Filtration Rate, Change from control", "setting": "[4]", "result": "5 ± 2", "unit": "mL/min"}, {"measurement": "Mean Arterial Pressure, Change from control", "setting": "[4]", "result": "8±2", "unit": "mm Hg"}, {"measurement": "Sodium Excretion, Change from control", "setting": "[4]", "result": "25±13", "unit": "µEq/min"}, {"measurement": "Urine Volume, Change from control", "setting": "[4]", "result": "0.21 ± 0.15", "unit": "mL/min"}, {"measurement": "ANP Excretion, Change from control", "setting": "[5]", "result": "41.0 ± 12.3", "unit": "fmol/min"}, {"measurement": "Cyclic GMP Excretion, Change from control", "setting": "[5]", "result": "128 ± 178", "unit": "pmol/min"}, {"measurement": "Effective Renal Plasma Flow, Change from control", "setting": "[5]", "result": "-25 ± 10", "unit": "mL/min"}, {"measurement": "Glomerular Filtration Rate, Change from control", "setting": "[5]", "result": "5 ± 4", "unit": "mL/min"}, {"measurement": "Mean Arterial Pressure, Change from control", "setting": "[5]", "result": "5±3", "unit": "mm Hg"}, {"measurement": "Sodium Excretion, Change from control", "setting": "[5]", "result": "24±12", "unit": "µEq/min"}, {"measurement": "Urine Volume, Change from control", "setting": "[5]", "result": "0.07 ± 0.08", "unit": "mL/min"}, {"measurement": "ANP Excretion, Change from control", "setting": "[6]", "result": "48.3 ± 21.5", "unit": "fmol/min"}, {"measurement": "Cyclic GMP Excretion, Change from control", "setting": "[6]", "result": "117 ± 220", "unit": "pmol/min"}, {"measurement": "Effective Renal Plasma Flow, Change from control", "setting": "[6]", "result": "-15 ± 6", "unit": "mL/min"}, {"measurement": "Glomerular Filtration Rate, Change from control", "setting": "[6]", "result": "5 ± 1", "unit": "mL/min"}, {"measurement": "Mean Arterial Pressure, Change from control", "setting": "[6]", "result": "3±4", "unit": "mm Hg"}, {"measurement": "Plasma Renin Activity, Change from control", "setting": "[6]", "result": "-0.02±0.05", "unit": "pmol AI/ml/hr"}, {"measurement": "Sodium Excretion, Change from control", "setting": "[6]", "result": "35±19", "unit": "µEq/min"}, {"measurement": "Urine Volume, Change from control", "setting": "[6]", "result": "0.12 ± 0.13", "unit": "mL/min"}, {"measurement": "ANP Excretion, Change from control", "setting": "[7]", "result": "41.8 ± 14.2", "unit": "fmol/min"}, {"measurement": "Cyclic GMP Excretion, Change from control", "setting": "[7]", "result": "121 ± 182", "unit": "pmol/min"}, {"measurement": "Effective Renal Plasma Flow, Change from control", "setting": "[7]", "result": "-11 ± 12", "unit": "mL/min"}, {"measurement": "Glomerular Filtration Rate, Change from control", "setting": "[7]", "result": "7 ± 4", "unit": "mL/min"}, {"measurement": "Mean Arterial Pressure, Change from control", "setting": "[7]", "result": "4±2", "unit": "mm Hg"}, {"measurement": "Sodium Excretion, Change from control", "setting": "[7]", "result": "39±18", "unit": "µEq/min"}, {"measurement": "Urine Volume, Change from control", "setting": "[7]", "result": "0.20 ± 0.10", "unit": "mL/min"}, {"measurement": "ANP Excretion, Change from control", "setting": "[8]", "result": "36.9 ± 12.4", "unit": "fmol/min"}, {"measurement": "Cyclic GMP Excretion, Change from control", "setting": "[8]", "result": "100 ± 246", "unit": "pmol/min"}, {"measurement": "Effective Renal Plasma Flow, Change from control", "setting": "[8]", "result": "-1 ± 12", "unit": "mL/min"}, {"measurement": "Glomerular Filtration Rate, Change from control", "setting": "[8]", "result": "9 ± 5", "unit": "mL/min"}, {"measurement": "Mean Arterial Pressure, Change from control", "setting": "[8]", "result": "5±2", "unit": "mm Hg"}, {"measurement": "Sodium Excretion, Change from control", "setting": "[8]", "result": "44±19", "unit": "µEq/min"}, {"measurement": "Urine Volume, Change from control", "setting": "[8]", "result": "0.24 ± 0.11", "unit": "mL/min"}, {"measurement": "ANP Excretion, Change from control", "setting": "[9]", "result": "29.0 ± 7.9", "unit": "fmol/min"}, {"measurement": "Cyclic GMP Excretion, Change from control", "setting": "[9]", "result": "343 ± 170", "unit": "pmol/min"}, {"measurement": "Effective Renal Plasma Flow, Change from control", "setting": "[9]", "result": "-4 ± 9", "unit": "mL/min"}, {"measurement": "Glomerular Filtration Rate, Change from control", "setting": "[9]", "result": "10 ± 4", "unit": "mL/min"}, {"measurement": "Mean Arterial Pressure, Change from control", "setting": "[9]", "result": "7±3", "unit": "mm Hg"}, {"measurement": "Plasma Renin Activity, Change from control", "setting": "[9]", "result": "-0.01±0.7", "unit": "pmol AI/ml/hr"}, {"measurement": "Sodium Excretion, Change from control", "setting": "[9]", "result": "44±18", "unit": "µEq/min"}, {"measurement": "Urine Volume, Change from control", "setting": "[9]", "result": "0.17 ± 0.06", "unit": "mL/min"}, {"measurement": "ANP Excretion", "setting": "Control, before treatment", "result": "1.9 ± 0.2", "unit": "fmol/min"}, {"measurement": "Cyclic GMP Excretion", "setting": "Control, before treatment", "result": "1017 ± 180", "unit": "pmol/min"}, {"measurement": "Effective Renal Plasma Flow", "setting": "Control, before treatment", "result": "123 ± 15", "unit": "mL/min"}, {"measurement": "Glomerular Filtration Rate", "setting": "Control, before treatment", "result": "39 ± 5", "unit": "mL/min"}, {"measurement": "Mean Arterial Pressure", "setting": "Control, before treatment", "result": "132±8", "unit": "mm Hg"}, {"measurement": "Plasma Renin Activity", "setting": "Control, before treatment", "result": "0.16±0.02", "unit": "pmol AI/ml/hr"}, {"measurement": "Sodium Excretion", "setting": "Control, before treatment", "result": "40±20", "unit": "µEq/min"}, {"measurement": "Urine Volume", "setting": "Control, before treatment", "result": "0.38 ± 0.13", "unit": "mL/min"}, {"measurement": "sodium excretion, effect in words", "setting": "summary of TABLE 2, 30 µmol/kg iv of each agent, 3 hours", "result": "increased"}, {"measurement": "urine volume, effect in words", "setting": "summary of TABLE 3, 30 µmol/kg iv of each agent, 3 hours", "result": "increased"}, {"measurement": "Urinary excretion of ANP, effect in words", "setting": "summary of TABLE 6, 30 µmol/kg iv of each agent", "result": "increased significantly"}, {"measurement": "mean arterial pressure (MAP), effect in words", "setting": "summary of Table 1, 30 µmol/kg iv of each agent, 3 hours", "result": "initially increased"}]}]}
